Measured values taken from ChEMBL document CHEMBL5385978, “Discovery of novel SOS1 inhibitors using machine learning” (RSC Med Chem, 2024).

Tested on: SOS1-KRAS (Homo sapiens), Q07889+P01116 [G12C]
Experiment: Inhibition of his tagged SOS1/GST-tagged KRAS G12C mutant (unknown origin) protein-protein interaction at 25 ug/ml incubated for 2 hrs by HTRF assay relative to control
Format: protein-complex assay
Details: dose 25.0 µg/ml

CC(C)CCN1CCCN(c2nc(Cc3ccccc3)nc3c2ncn3-c2ccccc2)CC1
inhibition: 2.1%

CC(C)OCCCNC1CCN(c2ncc(NC(=O)c3ccccc3)cc2C(=O)O)CC1
inhibition: 6.3%
